Results published in patent US8367606B2, “Method and compositions for prevention and treatment of diabetic and aged skin” (HealOr Ltd., priority 2005, dated 2013).

Columns and labels:
[1] = test system: primary mouse keratinocytes; test: Filaggrin expression in differentiating keratinocytes (Western blot of cytoskeletal fraction); type: cell-based; conditions: 50, 150 and 300 nM; 0.12 mM Ca2+
Method: Primary mouse keratinocytes were cultured in 0.05 mM Ca^+2 MEM and differentiation was induced by elevating Ca^+2 concentrations to 0.12 mM. Keratinocytes were treated with either PBS (control) or different concentrations (50, 150 and 300 nM) of troglitazone, a PPARγ activator. The cells were lysed and the cytoskeletal fraction was subjected to SDS-PAGE and blotted with anti-filaggrin antibody.

[2] = test system: damaged skin from diabetic (STZ injected) C57BL/6J mice; test: Reconstruction of the hypodermis layer in damaged diabetic skin (H&E histology); type: in vivo; conditions: 7-9 days treatment; insulin 0.1 unit + peptide 1 μM, or adipsin 1 μM
Method: Damaged skin from diabetic (STZ injected) C57BL/6J mice was treated with either PBS (control); a mixture of insulin (0.1 unit) and the N-myristoylated PKCα pseudosubstrate peptide of SEQ ID NO: 1 (1 μM); or adipsin (1 μM) for 7-9 days. Skin biopsies were then collected and embedded in paraffin, and histological sections were performed and stained with H&E. The sections were analyzed for presence of the hypodermis layer presented as a continuous layer of adipocytes, and the percent of total animals per each group with fully reconstituted hypodermis is shown in FIGS. 11A-11B.

[3] = test system: damaged skin of diabetic (STZ injected) C57BL/6J mice; test: Inflammatory response in damaged skin of diabetic mice (H&E histology, abscess formation and leukocytosis); type: in vivo; conditions: adiponectin 0.1 μg/ml for 7 days; non-treated control 90%; severe = both abscess and leukocytosis
Method: Damaged skin of diabetic (STZ injected) C57BL/6J mice was treated with either PBS (control) or adiponectin (0.1 μg/ml) for 7 days (total n=18). Thereafter, skin biopsies were collected, embedded in paraffin, and analyzed for inflammation by H&E histological staining. Inflammation was graded by abscess formation and excessive leukocytosis in the skin and proximal blood vessels, and severe inflammation was considered when both abscess and leukocytosis were apparent.
In the next step, damaged skin from diabetic (STZ injected) C57BL/6J mice was treated with either PBS (control); a mixture of insulin (0.1 unit) and the N-myristoylated PKCα pseudosubstrate peptide of SEQ ID NO: 1 (1 μM); or Copolymer-1 (Teva Pharmaceutical Industries, Israel), (55 μg/ml) for 9 days (n=6 per each group). […] Thereafter, skin biopsies were collected, embedded in paraffin, and analyzed for inflammation by H&E histological staining. Inflammation was graded as described above.

Cc1c(C)c2c(c(C)c1O)CCC(C)(COc1ccc(CC3SC(=O)NC3=O)cc1)O2 (stereo not drawn) [troglitazone, 5-(4-(6-hydroxy-2,5,7,8-tetramethylchroman-2-yl-methoxy)benzyl)-2,4-thiazolidinedione]
filaggrin expression (terminal differentiation marker, FIG. 12) [1]: upregulation of filaggrin expression

adipsin: adipokine, complement factor D secreted by adipocytes
reconstitution of the hypodermis layer (FIGS. 11A-11B) [2]: can reconstruct the hypodermal subcutaneous layer

B1: adiponectin: adipokine, a bioactive molecule secreted by adipocytes (protein, UniProt Q15848 19-244, looked up)
Adiponectin: ETTTQGPGVLLPLPKGACTGWMAGIPGHPGHNGAPGRDGRDGTPGEKGEKGDPGLIGPKGDIGETGVPGAEGPRGFPGIQGRKGEPGEGAYVYRSAFSVGLETYVTIPNMPIRFTKIFYNQQNHYDGSTGKFHCNIPGLYYFAYHITVYMKDVKVSLFKKDKAMLFTYDQYQENNVDQASGSVLLHLEVGDQVWLQVYGEGERNGLYADNDNDSTFTGFLLYHDTN
percent of animals exhibiting severe inflammation of the skin [3]: 20%
